Experimental data taken from US11986493B2 (University of Pittsburgh—Of the Commonwealth System of …, priority 2013, dated 2024).

Assays:
[1] = tested on: subjects with pulmonary hypertension; test: Oxygen saturation by pulse oximeter and methemoglobin by continuous percutaneous co-oximetry; assay type: in vivo, human; parameters: Syst O2sat: unit not given here
Procedure: Oxygen saturation measured by pulse oximeter and methemoglobin levels monitored by continuous percutaneous co-oximetry prior to dose administration and through 4 hours post-dose were monitored closely.

[2] = tested on: subjects with pulmonary hypertension; test: Systemic blood pressure (noninvasive) and heart rate monitoring during the study
Procedure: (§1) During the study right heart/pulmonary artery hemodynamics were measured as well as noninvasive systemic blood pressure monitoring and simultaneous RV echocardiography. Subjects were tested for the changes in pulmonary vascular resistance (PVR) measured by right heart catheterization and using thermodilution cardiac output measurement at time zero, at times 15, 30 and 45 minutes after completion of each nebulization dose.
Subjects were monitored closely for changes in blood pressure during the study. […] Subjects were continued to be monitored closely every 10 minutes for 2 hours.

[3] = tested on: subjects with pulmonary hypertension (WHO group I PAH, WHO group III PH); test: Right heart catheterization: right heart/pulmonary artery hemodynamics, thermodilution cardiac output, PVR and SVR after inhaled NO and nebulized nitrite; assay type: in vivo, human
Procedure: A total of 6 subjects with a confirmed diagnosis of pulmonary hypertension and meeting all inclusion/exclusion criteria were enrolled in the study which entailed a single right heart catheterization. The study population consisted of subjects with WHO group I PAH (n=3) and subjects with WHO group III PH (n=3) which received the dose escalation paradigm:
as §1
Following right heart catheterization, the patient was stabilized for 20 minutes. Baseline blood collections and hemodynamic measurements were performed, followed by treatment with 40 ppm inhaled NO gas for […] with repeat hemodynamic measurements performed.
After stopping inhaled NO gas, a single dose of sildenafil was given if patients were on background sildenafil therapy at previously prescribed doses. 45-minutes after sildenafil dose baseline hemodynamics were performed.
Subjects were monitored carefully during and after the study treatment.
The study was conducted at the 3rd FL Catheterization Laboratory at Presbyterian Hospital of the University of Pittsburgh Medical Center (UPMC). Baseline vasoreactivity was recorded after Inhaled NO at 40 ppm for […]. […] Subjects were instructed to breathe as calmly, and deeply as possible until no more mist was formed in the nebulizer chamber. Subjects were also instructed to hold their breath for approximately 10 seconds after inhalation to allow the study drug to reach deep into the lungs.

[4] = 40 ppm inhaled NO, some patients (non-responsive to inhaled NO)

## nitric oxide [iNO, reference compound]
[1]; Patient 1, 40 ppm inhaled NO
  Syst O2sat: 100
[1]; Patient 2, 40 ppm inhaled NO
  Syst O2sat: 100
[1]; Patient 3, 40 ppm inhaled NO
  Syst O2sat: 99
[1]; Patient 4, 40 ppm inhaled NO
  Syst O2sat: 100
[1]; Patient 5, 40 ppm inhaled NO
  Syst O2sat: 100
[1]; Patient 6, iNO
  Syst O2sat: 100
[2]; Patient 1, 40 ppm inhaled NO
  HR: 84
  Systemic DBP: 66
  Systemic SBP: 107
  Systemic mBP: 79.68
[2]; Patient 2, 40 ppm inhaled NO
  HR: 71
  Systemic DBP: 69
  Systemic SBP: 124
  Systemic mBP: 87.34
[2]; Patient 3, 40 ppm inhaled NO
  HR: 75
  Systemic DBP: 57
  Systemic SBP: 108
  Systemic mBP: 74.01
[2]; Patient 4, 40 ppm inhaled NO
  HR: 66
  Systemic DBP: 76
  Systemic SBP: 143
  Systemic mBP: 98.35
[2]; Patient 5, 40 ppm inhaled NO
  HR: 56
  Systemic DBP: 51
  Systemic SBP: 97
  Systemic mBP: 65.34
[2]; Patient 6, iNO
  HR: 100
  Systemic DBP: 77
  Systemic SBP: 147
  Systemic mBP: 100.346
[3]; [4]
  reduction in PCWP from baseline: did not show a meaningful reduction
  reduction in RA from baseline: did not show a meaningful reduction
[3]; Patient 1, 40 ppm inhaled NO
  CI: 2.54
  CO: 4.91
  PA sat: 68
  PAD: 25
  PAS: 73
  PCWP: 14
  PVR: 5.50
  PVR/SVR: 0.40
  RA: 12
  SVR: 13.78
  TPR: 8.35
  mPAP: 41.01
[3]; Patient 2, 40 ppm inhaled NO
  CI: 3.47
  CO: 6.7
  PA sat: 68
  PAD: 13
  PAS: 45
  PCWP: 10
  PVR: 2.04
  PVR/SVR: 0.17
  RA: 7
  SVR: 11.99
  TPR: 3.53
  mPAP: 23.67
[3]; Patient 3, 40 ppm inhaled NO
  CI: 3.14
  CO: 6.53
  PAD: 20
  PAS: 69
  PCWP: 14
  PVR: 3.42
  PVR/SVR: 0.35
  RA: 11
  SVR: 9.65
  TPR: 5.56
  mPAP: 36.34
[3]; Patient 4, 40 ppm inhaled NO
  CI: 2.98
  CO: 5.21
  PAD: 21
  PAS: 63
  PCWP: 7
  PVR: 5.38
  PVR/SVR: 0.29
  RA: 3
  SVR: 18.30
  TPR: 6.72
  mPAP: 35.00
[3]; Patient 5, 40 ppm inhaled NO
  CI: 2.85
  CO: 5.05
  PAD: 17
  PAS: 64
  PCWP: 14
  PVR: 3.70
  PVR/SVR: 0.30
  RA: 5
  RVD: 5
  RVS: 66
  SVR: 12.15
  TPR: 6.47
  mPAP: 32.67
[3]; Patient 6, iNO
  CI: 3.1658
  CO: 6.3
  PAD: 27
  PAS: 58
  PCWP: 13
  PVR: 4.3924
  PVR/SVR: 0.3132
  RA: 12
  RVD: 12
  RVS: 58
  SVR: 14.023
  TPR: 6.4559
  mPAP: 40.672
[3]; after inhalation of NO, in some instances
  PCWP compared to baseline: increased
